In patent EP0913150A1, “Combination of actives, viz. salicyl alcohol and fumaric acid and/or maleic acid, for the treatment of seborrheoic skin diseases, especially psoriasis” (Phytexpert, Pharm-Tox-Consulting GmbH, priority 1997, dated 1999):
In brackets after ≈: the same amount, converted by molar mass. Where two headings read alike, the source gives them in different places.

What was measured:
[1] = test system: menschlichen Keratinozyten (HaCat); assay: Inhibition of cell proliferation, neutral red (NR) method; type: cell-based; details: Homo sapiens, read-out: NR-Methode *IC50
Source text: (§1) Die Zellproliferation der Hautzellen wurde anhand der bekannten Neutralrotmethode untersucht. Die Zellschädigung wurde durch gleichzeitige Untersuchung der Freisetzung eines cytosolischen Enzyms, der Lactatdehydrogenase, zusätzlich bestimmt. In einigen Versuchen wurde auch die DNA-Synthese anhand der Inkorporation von ^3H-Thymidin mituntersucht.

[2] = Cytotoxicity, release of lactate dehydrogenase (LDH); type: cell-based, menschlichen; details: human
Source text: as §1

[3] = test system: menschlichen Keratinozyten (HaCat); assay: DNA synthesis, 3H-thymidine incorporation; type: cell-based; details: Homo sapiens; HaCat keratinocytes; influence on DNA synthesis; read-out: ^3H-Thymidin-Einbau
Source text: as §1

[4] = HaCat keratinocytes, 50% inhibition of cell growth

| SMILES | IC50 ([1]; HaCaT) | CC50 ([2]; hacat keratinocytes) | IC50 [1, 4] | IC50 [3] | CC50 ([2]; HaCat keratinocytes, measure of cytotoxicity, as concentration of the active substance, read-out: LDH-Freisetzung*) |
| --- | --- | --- | --- | --- | --- |
| C[C@@H]1C[C@H]2[C@@H]3CCC4=CC(=O)C=C[C@]4(C)[C@@]3(F)[C@@H](O)C[C@]2(C)[C@@]1(O)C(=O)CO [Dexamethason] | 800 µg/mL (≈ 2.04 mM) | > 600 µg/mL |  |  |  |
| OCc1ccccc1O [Salicylalkohol, 2-Hydroxybenzylalkohol] |  | > 600 µg/mL | 780 µg/mL (≈ 6.28 mM) | 300 µg/mL (≈ 2.42 mM) |  |
| O=C(O)c1ccccc1O [Na-Salicylat, Natriumsalicylat] | 1500 µg/mL (≈ 10.9 mM) |  |  |  | > 2000 µg/mL |
| O=C(O)/C=C\C(=O)O [Maleinsäure] |  | > 1000 µg/mL | 1700 µg/mL (≈ 14.6 mM) |  |  |
| O=C(O)/C=C/C(=O)O [Na-Fumarat, Natriumfumarat] |  | > 10000 µg/mL | 4900 µg/mL (≈ 42.2 mM) |  |  |
| O=Cc1ccccc1O [Salicylaldehyd] |  | > 100 µg/mL | 34 µg/mL (≈ 0.278 mM) |  |  |
